In patent US11472771B2, “Process for making amino diaryl ethers and amino diaryl ethers hydrochloride salts” (CELLESTIA BIOTECH AG, priority 2018, dated 2022):
Converted amounts (≈) assume the structure as drawn.

Key:
[1] = Solubility in water at various pH-values; assay type: physicochemical; conditions: for pH solution / soluble / calculated concentration charged: 500 mg in 14 ml; for soluble: conc. 33.33 mg/mL; for calculated concentration charged: not soluble
Procedure: The solubilities in water of 6-(4-(tert-butyl)phenoxy)pyridin-3-amine (formula (Ia)) and the monohydrochloride salt thereof, i.e. 6-(4-(tert-butyl)phenoxy)pyridin-3-amine monohydrochloride, were assessed at various pH-values according to Tables 3 and 4. The solubility in water of 6-(4-(tert-butyl)phenoxy)pyridin-3-amine (formula (Ia)) according to Table 3 was assayed as follows: Free base 500 mg were charged into 14 mL of acidic media at pH=2, 4, at neutral pH=7 and basic pH=10 to afford suspensions within calculated concentration of appr. 35 mg/mL. The solubility in water of 6-(4-(tert-butyl)phenoxy)pyridin-3-amine monohydrochloride according to Table 4 was assayed as follows: HCl salt 100 mg each were charged into acidic media at pH=2 and 4 and neutral media pH=7 to furnish solutions. Most important observation was to that at a neutral solution at pH=7 drops down to pH=1 by charging HCl salt 100 mg.

[2] = Solubility in water at various pH-values; assay type: physicochemical; conditions: aqueous buffer, thermodynamic from solid; in 0.01% HCl; 100 mg in 190 mL; read-out: solubility limit
[3] = 15% acetic acid soln., pH solvent 2

pH solution [1, 3]: 2
soluble [1, 3]: no
calculated concentration charged [1, 3]: 33.33 mg/mL
pH solution ([1]; Fluke 33643 (pH = 4)): 4
soluble ([1]; Fluke 33643 (pH = 4)): no
calculated concentration charged ([1]; Fluke 33643 (pH = 4)): 33.33 mg/mL
pH solution ([1]; Fluke 33646 (pH = 7)): 7
soluble ([1]; Fluke 33646 (pH = 7)): no
calculated concentration charged ([1]; Fluke 33646 (pH = 7)): 33.33 mg/mL
pH solution ([1]; Fluke 33649 (pH = 10)): 10
soluble ([1]; Fluke 33649 (pH = 10)): no
calculated concentration charged ([1]; Fluke 33649 (pH = 10)): 33.33 mg/mL
solubility in water ([1]; water, in words): very poorly soluble
solubility [2]: 530 µg/mL (≈ 2190 µM)
Structure (SMILES): CC(C)(C)c1ccc(Oc2ccc(N)cn2)cc1 [6-(4-(tert-butyl)phenoxy)pyridin-3-amine]
